Source: patent US20120100555A1, “Synthesis And Use Of Fluorophore-Tagged Antimalarials” (priority 2009, published 2012)

How the values were obtained:
P. falciparum, 3D7 [1] = settings: low nanomolar concentrations of CQ, 8 hours
Protocol: (§1) Plasmodium falciparum culture. […] Parasite cultures were maintained in 75 cm^2 or 125 cm^2 flasks using malaria culture media (MCM) consisting of RPMI 1640 supplemented with 0.5% (w/v) albumax I (Invitrogen), 0.005% (w/v) hypoxanthine, 0.03% (w/v) L-glutamate, 0.25% (w/v) gentamycin and 2.5% human erythrocytes. Flasks were gassed with 3% CO2, 4% O2 and 93% N2 and incubated at 37° C. in a dark incubator. Culture medium was replenished during subculturing on alternate days. Thin Giemsa smears were made to determine parasitemia before subculture and at the start of each experiment. Sorbitol synchronization (See Lambros, C., and Vanderberg, J. P. (1979) J Parasitol 65, 418-420) was carried out weekly to select for ring-stage parasites. Saponin enrichment (See Beaumelle, B. D., et al., (1987) J. Parasitol 73, 743-748) was carried out prior to staining with CaspaTag to liberate the parasites from host erythrocytes. Cultures of approximately 10% parasitemia were used, with parasites being in the late-ring stage (22-26 hours post-invasion) during the administration of inhibitor and drugs unless otherwise stated.

P. falciparum, 3D7 [2] = assay: Mitochondria trans-membrane potential assay (JC-1); type: cell-based, Plasmodium falciparum
Protocol: as §1, with “Cultures of approximately 10% parasitemia were used, with parasites being in the late-ring stage (22-26 hours post-invasion) during the administration of inhibitor and drugs unless otherwise stated.” left out
Flow Cytometric Analyses. Cell numbers and fluorescence intensity after staining with JC-1 were assayed by a flow cytometer (DAKO Cytomation Cyan ADP), equipped with an argon-ion laser tuned to 488 nm and a violet laser tuned to 405 nm. Green and red fluorescence was detected using 525 and 595 nm band-pass filters respectively. […] Between 10,000 to 20,000 infected erythrocytes or enriched parasites were analyzed from each sample and its respective duplicate to ensure reliability. […]

[3] = test system: Plasmodium falciparum parasites; assay: CM-CQ accumulation with chemo-sensitizers, fluorescent plate reader; type: cell-based; settings: for effect of pre-treatment on CM-CQ accumulation in K1: K1 (CQ-resistant), 10 uM chemo-sensitizer 30 min, then 6 uM CM-CQ 10 hrs
Protocol: FIG. 9 is a graph showing the effects of chemo-sensitizers on coumarin-conjugated chloroquine (CM-CQ) accumulation in Plasmodium falciparum parasites, obtained by spectrofluorometer plate readings.
(§2) Subsequently, 6 uM of Coumarin-Chloroquine (CM-CQ) was added to the samples for 10 hrs and left to incubate in the dark at 37° C. To ascertain the exact parasitemia of each condition, cultures in duplicate wells were stained with Hoechst just before flow cytometric analysis and fluorescence plate measurements. The proportion of CM-CQ-stained parasites was the ratio of the proportion of CM-CQ-stained infected erythrocyte culture over the proportion of Hoechst-positive erythrocytes.

[4] = test system: Plasmodium falciparum parasites; assay: CM-CQ accumulation with chemo-sensitizers, flow cytometry; type: cell-based; settings: for effect of pre-treatment on CM-CQ accumulation in K1: K1 (CQ-resistant), 10 uM chemo-sensitizer 30 min, then 6 uM CM-CQ 10 hrs
Protocol: FIG. 8 is a graph showing the effects of chemo-sensitizers on coumarin-conjugated chloroquine (CM-CQ) accumulation in Plasmodium falciparum parasites. Data were obtained by flow cytometry.
as §2

[5] = test system: P. falciparum strains 3D7 (CQ-susceptible); assay: Inhibitory concentration (IC50) determination, Hoechst staining and flow cytometry; type: cell-based, Plasmodium falciparum
Protocol: Parasitized cultures were incubated for 48 hours with various concentrations of the test compounds and, thereafter, parasitemia was determined using Hoechst staining and flow cytometric analyses.
as §1
Inhibitory concentration (IC50) determination. […] To determine parasitemia, cultures were stained with Hoechst 33342, as described above, and analyzed by flow cytometry.
Flow Cytometric Analyses. Cell numbers and fluorescence intensity after staining with JC-1 were assayed by a flow cytometer (DAKO Cytomation Cyan ADP), equipped with an argon-ion laser tuned to 488 nm and a violet laser tuned to 405 nm. Green and red fluorescence was detected using 525 and 595 nm band-pass filters respectively. The flow cytometer was adjusted for forward and side scattering to accommodate infected erythrocytes. Between 10,000 to 20,000 infected erythrocytes or enriched parasites were analyzed from each sample and its respective duplicate to ensure reliability. At least three independent experiments were performed unless otherwise stated.

[6] = 3D7, 48 hours, at the tested concentrations

SMILES | effect of pre-treatment on CM-CQ accumulation in K1 [3] | effect of pre-treatment on CM-CQ accumulation in K1 [4] | other results
CCN(CC)CCCC(C)Nc1ccnc2cc(Cl)ccc12 (centres unmarked) [CQ, Chloroquine diphosphate] | – | – | PCD features (CaspaTag) (P. falciparum, 3D7 [1]): basal levels; PCD features (JC-1) (P. falciparum, 3D7 [2]; low nanomolar concentrations of CQ, 8 hours): basal levels
CC(CN1c2ccccc2Sc2ccccc21)N(C)C (centres unmarked) [PMZ, promethazine] | increase was also detected | significantly increased | –
COc1ccc([C@@H]2Sc3ccccc3N(CCN(C)C)C(=O)[C@@H]2OC(C)=O)cc1 [DTZ, diltiazem] | not | not | –
CN(C)CCCN1c2ccccc2Sc2ccc(Cl)cc21 [CPZ, chlorpromazine] | significantly increased | significantly increased | –
CCN(CCCCNc1ccnc2cc(Cl)ccc12)CC(=O)NCCNC(=O)Cc1cc(=O)oc2cc(N(C)C)ccc12 [CM-CQ] | – | – | CM-CQ accumulation, 3D7 compared to 7G8 and K1 ([3]; 6 uM CM-CQ 10 hrs, p<0.001): different levels; CM-CQ accumulation, 3D7 compared to 7G8 and K1 ([4]; 6 uM CM-CQ 10 hrs, p<0.05): different levels; activity compared to chloroquine (FIG. 2) ([5]; 3D7): activity comparable to chloroquine; IC50 ([5]; Plasmodium falciparum, read-out: IC50 (50% inhibitory concentration), 3D7, ring stage, 48 hours, parasitemia by Hoechst 33342 flow cytometry): 349 nM; proportion of parasites containing functional mitochondrion with transmembrane potential (ΔΨm) after treatment (P. falciparum, 3D7 [2]; JC-1 J-aggregates, dose-dependent decline from about 90% in uninduced cells): ~60%
CN(C)CCC(c1ccc(Cl)cc1)c1ccccn1 (centres unmarked) [CPR, chlorpheneramine] | significantly increased | increase was also detected | –
CN(C)c1ccc2c(CC(=O)O)cc(=O)oc2c1 [CM, 7-dimethyl amino-4-coumarinacetic acid] | – | – | cytotoxicity [5, 6]: not cytotoxic; inhibitory effect on parasitemia [5, 6]: no detectable inhibitory effect
CC(C)NCC(O)COc1cccc2ccccc12 (centres unmarked) [PPL, propranolol] | not | not | –
COc1ccc(CCN(C)CCCC(C#N)(c2ccc(OC)c(OC)c2)C(C)C)cc1OC (centres unmarked) [VPM, verapamil] | significantly increased | significantly increased | –
CNCCCN1c2ccccc2CCc2ccccc21 [DSP, desipramine] | significantly increased | significantly increased | –
